Measurements: BindingDB's records for doi:10.1016/j.bmcl.2019.02.028 (Indiana University School of Medicine, 2019)
pKd: −log10 of the molar value.

Biological target: Chaperonin GroEL (Escherichia coli (strain K12), UniProt P0A6F5)
Experiment: Binding affinity to Escherichia coli GroEL expressed in Escherichia coliDH5alpha by ITC assay

Sequence of Chaperonin GroEL (P0A6F5 2-548 limits assumed): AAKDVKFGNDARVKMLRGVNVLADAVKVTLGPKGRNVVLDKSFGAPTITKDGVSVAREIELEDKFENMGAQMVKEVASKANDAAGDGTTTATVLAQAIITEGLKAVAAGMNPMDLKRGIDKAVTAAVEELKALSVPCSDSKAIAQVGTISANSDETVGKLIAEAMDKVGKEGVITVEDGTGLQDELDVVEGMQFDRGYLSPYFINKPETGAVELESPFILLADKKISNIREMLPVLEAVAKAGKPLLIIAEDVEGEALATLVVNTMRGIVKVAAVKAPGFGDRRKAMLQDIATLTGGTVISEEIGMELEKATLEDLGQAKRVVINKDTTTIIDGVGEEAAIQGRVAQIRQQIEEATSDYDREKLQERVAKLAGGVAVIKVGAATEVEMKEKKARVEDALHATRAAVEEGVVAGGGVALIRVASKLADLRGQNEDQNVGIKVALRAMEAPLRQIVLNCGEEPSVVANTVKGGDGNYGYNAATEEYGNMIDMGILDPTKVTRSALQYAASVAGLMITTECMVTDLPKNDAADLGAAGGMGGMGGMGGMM

SMILES: CC1=CCC(C(=O)/N=C2\CC=C(S(=O)(=O)O)c3cc(S(=O)(=O)O)cc(S(=O)(=O)O)c32)=C/C1=N/C(=O)C1=CC=C/C(=N\C(=O)/N=C2\C=CC=C(C(=O)/N=C3/CC(C(=O)/N=C4\CC=C(S(=O)(=O)O)c5cc(S(=O)(=O)O)cc(S(=O)(=O)O)c54)=CC=C3C)C2)C1
- pKd: 5.01
